Data reported in publication PMC10600239, “Selective MCL-1 inhibitor ABBV-467 is efficacious in tumor models but is associated with cardiac troponin increases in patients” (Communications Medicine, 2023).
Where “and” joins values, the source holds several entries; their conditions need not be identical. Equal values may be shown once.

Tested on: troponin
Assay: Troponin monitoring in phase 1 patients
Format: in vivo, human
Details: for Troponin I, Central Laboratory: reference range ≤0.04 ng/mL; for Troponin T: patient, normal range 0-0.014
Method: Blood samples for plasma ABBV-467 concentration analysis were collected on days 1, 2, 3, and 15–17 of cycle 1 as well as on days 1 of cycles for PK analysis. Plasma samples of ABBV-467 were quantified using a validated LC-tandem MS with a lower limit of detection of 3 ng/mL. ABBV-467 PK parameters were calculated using standard non-compartmental approaches with Phoenix, WinNonlin (Version 8.0, Certara). AE severity was graded according to the National Cancer Institute Common Terminology Criteria for Adverse Events v5.0 for up to 30 days after the last dose. Analyses of AEs will include only treatment-emergent AEs. Triplicate ECGs were performed on days 1, 2, 15, and 16 of cycle 1. […] An echocardiogram was performed at screening and day 1 of cycle 2 and cycle 6. […]
Creatine Phosphokinase and Troponin Enzymes
Blood samples will be collected on the days specified in Section 2 for analysis of creatine phosphokinase and troponin serum concentrations. Clinical significance of these enzymes will be evaluated within the […]
context of the study. Samples should also be obtained as clinically indicated in the opinion of the investigator.
Table 9. Creatine Phosphokinase and Troponin Sampling Times […]
4, 8, 24, and 48 hours post-EOI
4, 8, 24 and 48 hours post-EOI
Sample times are relative to ABBV-467 infusion. […]

[1] = of the 4 patients with elevations

SMILES: Cc1c(Cl)c2c(Cl)c(C)c1-c1c(-c3ccc(F)cc3)sc3ncnc(c13)O[C@@H](C(=O)O)Cc1cc(ccc1OCc1ccnc(-c3ccc(OC[C@H]4COCCO4)cc3)n1)OC[C@@H](CN1CCN(C)CC1)O2 [ABBV-467]
- Troponin I, Central Laboratory (Patient 6, C1D1 8hr post EOI, study day 1): <0.03 ng/mL
- Troponin I, Central Laboratory (Patient 6, C1D1 Predose, study day 1): <0.03 ng/mL
- Troponin I, Central Laboratory (Patient 6, C1D2 24h post EOI, study day 2): <0.03 ng/mL
- Troponin I, Central Laboratory (Patient 6, C1D3 48hr Post EOI, study day 3): <0.03 ng/mL
- Troponin I, Central Laboratory (Patient 6, C1D15 4hr Post EOI, study day 15): <0.03 ng/mL
- Troponin I, Central Laboratory (Patient 6, C1D15 8h post EOI, study day 15): <0.03 ng/mL
- Troponin I, Central Laboratory (Patient 6, C1D15 Predose, study day 15): <0.03 ng/mL
- Troponin I, Central Laboratory (Patient 6, C1D16 24h post EOI, study day 16): <0.03 ng/mL
- Troponin I, Central Laboratory (Patient 6, C1D17 48hr Post EOI, study day 17): <0.03 ng/mL
- Troponin I, Central Laboratory (Patient 7, C1D1 4hr Post EOI, study day 1): <0.03 ng/mL
- Troponin I, Central Laboratory (Patient 7, C1D1 8hr post EOI, study day 1): <0.03 ng/mL
- Troponin I, Central Laboratory (Patient 7, C1D1 Predose, study day 1): <0.03 ng/mL
- Troponin I, Central Laboratory (Patient 7, C1D2 24h post EOI, study day 2): <0.03 ng/mL
- Troponin I, Central Laboratory (Patient 7, C1D3 48hr Post EOI, study day 3): <0.03 ng/mL
- Troponin I, Central Laboratory (Patient 7, C1D15 4hr Post EOI, study day 15): <0.03 ng/mL
- Troponin I, Central Laboratory (Patient 7, C1D15 8h post EOI, study day 15): <0.03 ng/mL
- Troponin I, Central Laboratory (Patient 7, C1D15 Predose, study day 15): <0.03 ng/mL
- Troponin I, Central Laboratory (Patient 7, C1D16 24h post EOI, study day 16): <0.03 ng/mL
- Troponin I, Central Laboratory (Patient 7, C1D17 48hr Post EOI, study day 17): <0.03 ng/mL
- Troponin I, Central Laboratory (Patient 8, C1D1 4hr Post EOI, study day 1): <0.03 ng/mL
- Troponin I, Central Laboratory (Patient 8, C1D1 8hr post EOI, study day 1): <0.03 ng/mL
- Troponin I, Central Laboratory (Patient 8, C1D1 Predose, study day 1): <0.03 ng/mL
- Troponin I, Central Laboratory (Patient 8, C1D2 24h post EOI, study day 2): <0.03 ng/mL
- Troponin I, Central Laboratory (Patient 8, C1D3 48hr Post EOI, study day 3): <0.03 ng/mL
- Troponin I, Central Laboratory (Patient 8, C1D15 4hr Post EOI, study day 15): <0.03 ng/mL
- Troponin I, Central Laboratory (Patient 8, C1D15 8h post EOI, study day 15): <0.03 ng/mL
- Troponin I, Central Laboratory (Patient 8, C1D15 Predose, study day 15): <0.03 ng/mL
- Troponin I, Central Laboratory (Patient 8, C1D16 24h post EOI, study day 16): <0.03 ng/mL
- Troponin I, Central Laboratory (Patient 8, C1D17 48hr Post EOI, study day 17): 0.03 ng/mL
- relation of grade ≥1 elevated troponin to peak plasma concentration and AUC (across the studied dose range): unrelated
- patients with troponin elevations (all doses, N = 8): 4 (50%) patients (%)
- patients with troponin elevations (dose 0.32 mg/kg): 1 (12.5%) patients (%)
- first blood draw post-infusion at which troponin elevations were detectable (human, in vivo): 4 h
- patients with grade 1 troponin elevation [1]: 3 (75%) patients (%)
- patients with grade 3 troponin elevation [1]: 1 (25%) patients (%)
- Troponin T (LBDY 1): 0.011 µg/L
- Troponin T (LBDY 9): 0.021 µg/L
- Troponin T (LBDY 11): 0.038 µg/L
- Troponin T (LBDY 12): 0.032 µg/L
- Troponin T (LBDY 15): 0.018 µg/L and 0.019 µg/L
- Troponin T (LBDY 16): 0.021 µg/L
- Troponin T (LBDY 17): 0.024 µg/L
- Troponin T (LBDY 18): 0.027 µg/L
- Troponin T (LBDY 19): 0.025 µg/L
- Troponin T (LBDY 22): 0.015 µg/L
- Troponin T (LBDY 23): 0.019 µg/L
- Troponin T (LBDY 25): 0.024 µg/L
- Troponin T (LBDY 26): 0.019 µg/L
- Troponin T (LBDY 30 (Note: 29)): 0.021 µg/L
- Troponin T (LBDY 36 (Note: missing)): 0.018 µg/L
- Troponin T (LBDY 61 (Note: missing)): 0.016 µg/L
- troponin I, grade 3 elevation, multiple of upper limit of normal (single patient): 1.9 × upper limit of normal
